{
  "source": "paper PMC11968506",
  "about": "“Toxicokinetics and analytical toxicology of the phenmetrazine-derived new psychoactive substance 3,4-methylenedioxyphenmetrazine studied by means of in vitro systems” (Archives of Toxicology, 2025)",
  "key": {"[1]": {"assay": "In vitro half-life by substrate depletion in pHLS9", "assay_type": "in vitro ADME", "settings": "human, pooled human liver S9 fraction (pHLS9), pHLS9, 25 µM substrate, sampling 0-180 min, read-out: in vitro half-life (t1/2)", "experimental": "Incubations with pHLS9 were performed in accordance with previous publications and minor adjustments (Richter et al. [2017]). First, 25 μg/mL alamethicin (UGT reaction mix B), pHLS9 (2 mg microsomal protein/mL), 0.1 mM AcCoA, 2.3 mM acetylcarnitine, 8 U/mL carnitine acetyltransferase, 2.5 mM isocitrate, 0.8 U/mL isocitrate dehydrogenase, 100 U/mL superoxide dismutase, 0.6 mM NADP^+ and 2.5 mM Mg^2+ were preincubated for 10 min at 37 °C. Then, 2.5 mM UDP-glucuronic acid (UGT reaction mix A), 40 µM PAPS, 1.2 mM SAM, 1 mM DTT and 10 mM GSH were added. The reaction was started by adding the respective substrate MDPM, MDMA, or quetiapine (25 µM each). MDMA and quetiapine were incubated as positive controls. Negative control samples without enzymes and blank samples without substrates were incubated to identify not metabolically formed compounds and to confirm the absence of interfering compounds. […] Aliquots (50 µL) were transferred to a new reaction tube after 60 and 360 min. […] Samples were vortexed, stored at − 20 °C for 30 min, and centrifuged for 2 min at 18,407×g.\nIncubations to investigate in vitro half-life were performed under the same incubation conditions as described above and done in duplicate. […] A t-test was performed to compare absolute peak areas of the incubation group and the control group at 0 min. […]\nIn vitro half-life was determined by measuring substrate depletion. […]"}, "CYP2C19": {"biological_target": "CYP2C19 (Homo sapiens, UniProt P33261)", "sequence (P33261 whole entry)": "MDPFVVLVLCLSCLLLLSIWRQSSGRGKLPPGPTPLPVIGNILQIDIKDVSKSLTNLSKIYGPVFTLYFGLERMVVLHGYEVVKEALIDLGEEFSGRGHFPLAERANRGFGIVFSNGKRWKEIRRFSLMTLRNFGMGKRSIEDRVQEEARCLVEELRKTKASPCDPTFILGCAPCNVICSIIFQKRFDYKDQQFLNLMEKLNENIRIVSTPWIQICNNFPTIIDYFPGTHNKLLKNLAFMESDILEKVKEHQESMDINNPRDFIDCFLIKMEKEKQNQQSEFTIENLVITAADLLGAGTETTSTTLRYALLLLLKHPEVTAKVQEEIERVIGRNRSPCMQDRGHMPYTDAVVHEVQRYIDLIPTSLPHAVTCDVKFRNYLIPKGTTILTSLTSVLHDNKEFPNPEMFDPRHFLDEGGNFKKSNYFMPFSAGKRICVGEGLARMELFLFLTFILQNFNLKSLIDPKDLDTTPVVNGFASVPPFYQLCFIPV", "assay": "CYP inhibition cocktail assay in pHLM, CYP2C19 (omeprazole)", "settings": "inhibitor 20 µM", "experimental": "(§1) A modified dual-cocktail based method (Dinger et al. [2014b]) was used. Substrate cocktail A consisted of 8.9 µM dextromethorphan (CYP2D6), 86 µM testosterone (CYP3A4), 3.5 µM diclofenac (CYP2C9), and 12 µM phenacetin (CYP1A2). Substrate cocktail B included 30 µM bupropion (CYP2B6), 2 µM amodiaquine (CYP2C8) and 21 µM omeprazole (CYP2C19). Substrate concentrations were near their respective Michaelis–Menten constant (Km) values (Dinger et al. [2014a]) and all concentrations are final. Enzyme inhibition was investigated using a positive control, a test group, a control group, an interference group, and a negative control. In the test group, specific inhibitors were replaced by MDPM (20 µM). Instead of inhibitors, phosphate buffer was used in the control group. Enzymes were replaced with phosphate buffer in the negative control group. The interference group was incubated like the control group, but the reaction was stopped with 20 µM MDPM in acetonitrile, also containing 2.5 µM trimipramine-d3. All groups were incubated with a NADPH-regenerating system, consisting of 5 mM isocitrate, 2 U/mL isocitrate dehydrogenase, 5 mM Mg^2+, and 1.2 mM NADP^+. Further, substrate cocktail A or B, 90 mM phosphate buffer (pH 7.4), and 200 U/mL superoxide dismutase were added to each group. […] All groups were preincubated for 10 min at 37 °C. Then, pHLM (0.4 mg microsomal protein/mL) was added to each group except the negative control. Incubations were done for 15 min at 37 °C. Therefore, 50 µL of acetonitrile (− 20 °C) containing 2.5 µM trimipramine-d3 as internal standard was added. Incubations were done in triplicates and organic solvent in the incubation mixture was below 1% (Chauret et al. [1998]). Afterwards the samples were vortexed and centrifuged for 2 min at 18,407×g. 70 µL of the supernatant were transferred to autosampler vials and 10 µL were injected onto the LC-HRMS/MS system. Enzyme inhibition was evaluated by metabolite formation. […] The following settings were used: unpaired; one-tailed; significance level, 0.05; confidence intervals, 99%."}, "CYP2C9": {"biological_target": "CYP2C9 (Homo sapiens, UniProt P11712)", "sequence (P11712 whole entry)": "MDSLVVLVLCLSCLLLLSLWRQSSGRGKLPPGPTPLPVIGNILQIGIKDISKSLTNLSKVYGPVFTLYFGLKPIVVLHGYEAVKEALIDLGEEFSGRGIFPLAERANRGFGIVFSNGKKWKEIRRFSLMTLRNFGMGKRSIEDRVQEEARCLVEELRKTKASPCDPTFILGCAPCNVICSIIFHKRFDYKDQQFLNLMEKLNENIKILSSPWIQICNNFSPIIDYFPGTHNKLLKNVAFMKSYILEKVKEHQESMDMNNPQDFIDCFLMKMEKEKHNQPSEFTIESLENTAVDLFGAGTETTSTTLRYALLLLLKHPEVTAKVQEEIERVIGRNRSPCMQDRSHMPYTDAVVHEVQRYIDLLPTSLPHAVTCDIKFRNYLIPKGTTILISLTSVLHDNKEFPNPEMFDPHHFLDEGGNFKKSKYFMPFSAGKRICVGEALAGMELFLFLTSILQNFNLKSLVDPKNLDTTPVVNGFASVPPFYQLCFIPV", "assay": "CYP inhibition cocktail assay in pHLM, CYP2C9 (diclofenac)", "settings": "inhibitor 20 µM", "experimental": "as §1"}, "CYP2D6": {"biological_target": "CYP2D6 (Homo sapiens, UniProt P10635)", "sequence (P10635 whole entry, canonical isoform)": "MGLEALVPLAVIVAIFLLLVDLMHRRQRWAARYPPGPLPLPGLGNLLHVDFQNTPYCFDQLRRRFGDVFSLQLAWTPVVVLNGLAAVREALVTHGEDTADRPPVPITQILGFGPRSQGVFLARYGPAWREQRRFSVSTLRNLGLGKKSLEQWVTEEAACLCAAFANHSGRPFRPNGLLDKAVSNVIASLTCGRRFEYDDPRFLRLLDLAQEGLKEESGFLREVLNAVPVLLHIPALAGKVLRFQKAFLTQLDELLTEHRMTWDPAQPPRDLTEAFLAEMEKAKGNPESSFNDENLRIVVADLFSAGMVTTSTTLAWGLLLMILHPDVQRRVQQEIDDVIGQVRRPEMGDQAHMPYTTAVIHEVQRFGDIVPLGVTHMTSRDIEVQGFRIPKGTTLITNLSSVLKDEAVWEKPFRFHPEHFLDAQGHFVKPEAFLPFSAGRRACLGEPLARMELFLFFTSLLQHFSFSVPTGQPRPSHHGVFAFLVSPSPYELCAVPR", "assay": "Monooxygenase mapping (ten human cDNA-expressed CYP isoforms and FMO3)", "assay_type": "in vitro ADME", "parameters": "Then, pHLM (0.4 mg microsomal protein/mL) was added to each group except the negative control; tissue Discovery Life Sciences; host or cells: pooled human liver microsomes, 25 donors", "settings": "MDPM 25 µM, CYP 50 pmol/mL each or FMO3 0.25 mg protein/mL, 90 and 270 min", "experimental": "As described elsewhere (Wagmann et al. [2016]) and with minor modifications, MDPM (25 µM) was incubated with 2.5 mM isocitrate, 0.8 U/mL isocitrate dehydrogenase, 100 U/mL superoxide dismutase, 0.6 mM NADP^+, 2.5 mM Mg^2+ and CYP1A2, CYP2A6, CYP2B6, CYP2C8, CYP2C9, CYP2C19, CYP2D6, CYP2E1, CYP3A4, CYP3A5 (50 pmol/mL each), or FMO3 (0.25 mg protein/mL) for 90 and 270 min at 37 °C. For incubations with CYP2A6 or CYP2C9, phosphate buffer was replaced with 90 mM Tris buffer, according to the manufacturer’s guideline. Thirty µL aliquots were taken at both timepoints. The reaction was stopped using 20 µL acetonitrile (− 20 °C) with 2.5 µM trimipramine-d3 as an internal standard. All incubations were done in duplicates and concentrations are final. […] Negative control samples without enzymes and blank samples without substrate were incubated to identify not metabolically formed compounds and to confirm the absence of interfering compounds."}, "CYP3A4": {"biological_target": "CYP3A4 (Homo sapiens, UniProt P08684)", "sequence (P08684 whole entry)": "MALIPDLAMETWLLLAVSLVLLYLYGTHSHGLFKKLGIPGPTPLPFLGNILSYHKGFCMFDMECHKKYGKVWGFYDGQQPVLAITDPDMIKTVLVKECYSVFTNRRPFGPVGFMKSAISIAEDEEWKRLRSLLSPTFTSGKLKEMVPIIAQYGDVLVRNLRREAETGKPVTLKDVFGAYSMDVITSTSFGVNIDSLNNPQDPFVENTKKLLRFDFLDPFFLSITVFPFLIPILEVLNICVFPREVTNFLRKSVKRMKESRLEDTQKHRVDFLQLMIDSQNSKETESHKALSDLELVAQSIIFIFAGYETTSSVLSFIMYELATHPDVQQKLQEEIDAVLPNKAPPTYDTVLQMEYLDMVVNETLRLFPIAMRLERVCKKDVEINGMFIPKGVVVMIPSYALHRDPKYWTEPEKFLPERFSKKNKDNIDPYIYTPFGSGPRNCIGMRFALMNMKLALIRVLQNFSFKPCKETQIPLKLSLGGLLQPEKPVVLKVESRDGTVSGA", "assay": "CYP inhibition cocktail assay in pHLM, CYP3A4 (testosterone)", "experimental": "A modified dual-cocktail based method (Dinger et al. [2014b]) was used. Substrate cocktail A consisted of 8.9 µM dextromethorphan (CYP2D6), 86 µM testosterone (CYP3A4), 3.5 µM diclofenac (CYP2C9), and 12 µM phenacetin (CYP1A2). Substrate cocktail B included 30 µM bupropion (CYP2B6), 2 µM amodiaquine (CYP2C8) and 21 µM omeprazole (CYP2C19). Substrate concentrations were near their respective Michaelis–Menten constant (Km) values (Dinger et al. [2014a]) and all concentrations are final. Enzyme inhibition was investigated using a positive control, a test group, a control group, an interference group, and a negative control. In the test group, specific inhibitors were replaced by MDPM (20 µM). Instead of inhibitors, phosphate buffer was used in the control group. Enzymes were replaced with phosphate buffer in the negative control group. The interference group was incubated like the control group, but the reaction was stopped with 20 µM MDPM in acetonitrile, also containing 2.5 µM trimipramine-d3. All groups were incubated with a NADPH-regenerating system, consisting of 5 mM isocitrate, 2 U/mL isocitrate dehydrogenase, 5 mM Mg^2+, and 1.2 mM NADP^+. Further, substrate cocktail A or B, 90 mM phosphate buffer (pH 7.4), and 200 U/mL superoxide dismutase were added to each group. […] All groups were preincubated for 10 min at 37 °C. […] Enzyme inhibition was evaluated by metabolite formation. […]"}},
  "data": [
    {"smiles": "CC1NCCOC1c1ccc2c(c1)OCO2", "note": "(centres unmarked) [MDPM, 2-(1,3-benzodioxol-5-yl)-3-methylmorpholine]", "values": [
      {"measurement": "half-life at 25 µM", "setting": "[1]", "value": "> 3", "unit": "h"},
      {"measurement": "CYP2C19 metabolite formation", "setting": "CYP2C19; omeprazole 21 µM, pHLM 0.4 mg/mL, 15 min, control without inhibitor = 100%", "value": 86, "unit": "%"},
      {"measurement": "inhibition of CYP2C19", "setting": "CYP2C19; omeprazole, pHLM, t-test versus control", "value": "no significant inhibition"},
      {"measurement": "CYP2C9 metabolite formation", "setting": "CYP2C9; diclofenac 3.5 µM, pHLM 0.4 mg/mL, 15 min, control without inhibitor = 100%", "value": 115, "unit": "%"},
      {"measurement": "inhibition of CYP2C9", "setting": "CYP2C9; diclofenac, pHLM, t-test versus control", "value": "no significant inhibition"},
      {"measurement": "isozymes forming the demethylenyl metabolite (O-demethylenation of MDPM)", "setting": "CYP2D6", "value": "exclusively by CYP2D6"},
      {"measurement": "inhibition at 15 min, 20 µM", "setting": "CYP3A4; human, pH 7.4", "value": 28, "unit": "%"},
      {"measurement": "CYP3A4 metabolite formation", "setting": "CYP3A4; inhibitor 20 µM, testosterone 86 µM, pHLM 0.4 mg/mL, 15 min, control without inhibitor = 100%", "value": 72, "unit": "%"}
    ]}
  ]
}
